According to PubChem BioAssay (NCI):
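These data come from cells grown in 96-well plates and exposed to compound for 48 hours at five concentrations. GI50 marks 50% less growth. At the TGI there is no net growth.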

Legend:
Assay in all cases: NCI-60 cell line screen, 48 h
[1] = system: OVCAR-5 ovarian
[2] = system: HCT-116 colon
[3] = system: RXF 393 renal
[4] = system: SNB-75 CNS
[5] = system: SK-MEL-5 melanoma
[6] = system: SN12C renal
[7] = system: KM12 colon
[8] = system: UACC-257 melanoma
[9] = system: PC-3 prostate
[10] = system: SK-MEL-2 melanoma
[11] = system: MALME-3M melanoma
[12] = system: CCRF-CEM leukemia
[13] = system: DU-145 prostate
[14] = system: BT-549 breast
[15] = system: A549 NSCLC
[16] = system: ACHN renal
[17] = system: SF-539 CNS
[18] = system: NCI-H23 lung
[19] = system: UACC-62 melanoma
[20] = system: MDA-MB-435
[21] = system: HS 578T breast
[22] = system: HL-60(TB) leukemia
[23] = system: 786-0 renal
[24] = system: OVCAR-4 ovarian
[25] = system: EKVX NSCLC
[26] = system: SF-268 CNS
[27] = system: COLO 205 colon
[28] = system: SW-620 colon
[29] = system: OVCAR-8 ovarian
[30] = system: UO-31 renal
[31] = system: SF-295 CNS
[32] = system: U251 CNS
[33] = system: SNB-19 CNS
[34] = system: K-562 leukemia
[35] = system: LOX IMVI melanoma
[36] = system: NCI-H522 lung
[37] = system: IGROV1 ovarian
[38] = system: MCF7 breast
[39] = system: HOP-92 NSCLC
[40] = system: SR leukemia
[41] = system: MDA-MB-231 breast
[42] = system: HOP-62 NSCLC
[43] = system: A498 renal
[44] = system: NCI-H460 lung
[45] = system: SK-MEL-28 melanoma
[46] = system: NCI-H226 lung
[47] = system: OVCAR-3 ovarian
[48] = system: NCI/ADR-RES ovarian
[49] = system: M14 melanoma
[50] = system: HCT-15 colon
[51] = system: HT29 colon
[52] = system: SK-OV-3 ovarian
[53] = system: HCC-2998 colon
[54] = system: RPMI-8226 leukemia
[55] = system: MOLT-4 leukemia
[56] = system: T-47D breast

With `C=C1C(=O)O[C@H]2[C@H]1CC/C(CNC(=O)/C=C/c1cc(OC)c(OC)c(OC)c1)=C\CC[C@@]1(C)O[C@@H]21` as the molecule, how does the GI50 [1] read?
Its GI50 is 2440 nM.

And the TGI [1]?
Its TGI is 12.9 µM.

And the GI50 [2]?
Its GI50 is 760 nM.

What about the TGI [2] of the same molecule?
Its TGI is 2100 nM.

And the GI50 [3]?
The GI50 was 298 nM.

What about the TGI [3] of the same molecule?
Its TGI is 1880 nM.

And the GI50 [4]?
The GI50 was 2930 nM.

What about the TGI [4] of the same molecule?
Its TGI is 22.9 µM.

And the GI50 [5]?
The GI50 was 2490 nM.

What about the TGI [5] of the same molecule?
Its TGI is 7.33 µM.

And the GI50 [6]?
The GI50 was 3.46 µM.

What about the TGI [6] of the same molecule?
The TGI was 14.3 µM.

And the GI50 [7]?
The GI50 was 7.62 µM.

What about the TGI [7] of the same molecule?
Its TGI is 21.1 µM.

And the GI50 [8]?
The GI50 was 1760 nM.

And the TGI [8]?
The TGI was 5.72 µM.

And the GI50 [9]?
Its GI50 is 6.24 µM.

What about the TGI [9] of the same molecule?
The TGI was 20 µM.

What about the GI50 [10] of the same molecule?
Its GI50 is 1730 nM.

What about the TGI [10] of the same molecule?
Its TGI is 7.18 µM.

And the GI50 [11]?
Its GI50 is 1340 nM.

And the TGI [11]?
Its TGI is 3.44 µM.

What about the GI50 [12] of the same molecule?
The GI50 was 478 nM.

What about the TGI [12] of the same molecule?
Its TGI is 4.37 µM.

What about the GI50 [13] of the same molecule?
Its GI50 is 4.95 µM.

What about the TGI [13] of the same molecule?
Its TGI is 17.3 µM.

What about the GI50 [14] of the same molecule?
Its GI50 is 1510 nM.

And the TGI [14]?
Its TGI is 3.95 µM.

And the GI50 [15]?
Its GI50 is 8.04 µM.

And the TGI [15]?
The TGI was 23.7 µM.

What about the GI50 [16] of the same molecule?
Its GI50 is 1270 nM.

And the TGI [16]?
Its TGI is 2890 nM.

And the GI50 [17]?
The GI50 was 2000 nM.

What about the TGI [17] of the same molecule?
The TGI was 5.93 µM.

What about the GI50 [18] of the same molecule?
Its GI50 is 1580 nM.

What about the TGI [18] of the same molecule?
Its TGI is 3.58 µM.

And the GI50 [19]?
Its GI50 is 730 nM.

And the TGI [19]?
Its TGI is 2920 nM.

And the GI50 [20]?
Its GI50 is 2330 nM.

And the TGI [20]?
Its TGI is 13.5 µM.

And the GI50 [21]?
The GI50 was 4.54 µM.

What about the TGI [21] of the same molecule?
The TGI was 27.9 µM.

What about the GI50 [22] of the same molecule?
The GI50 was 925 nM.

And the TGI [22]?
Its TGI is 3.3 µM.

What about the GI50 [23] of the same molecule?
Its GI50 is 1290 nM.

And the TGI [23]?
Its TGI is 2900 nM.

What about the GI50 [24] of the same molecule?
The GI50 was 1510 nM.

What about the TGI [24] of the same molecule?
The TGI was 10.5 µM.

And the GI50 [25]?
Its GI50 is 2220 nM.

And the TGI [25]?
The TGI was 13.8 µM.

What about the GI50 [26] of the same molecule?
The GI50 was 3.59 µM.

And the TGI [26]?
Its TGI is 15.6 µM.

And the GI50 [27]?
The GI50 was 618 nM.

And the TGI [27]?
Its TGI is 2450 nM.

What about the GI50 [28] of the same molecule?
The GI50 was 615 nM.

And the TGI [28]?
The TGI was 2490 nM.

And the GI50 [29]?
The GI50 was 4.09 µM.

And the TGI [29]?
Its TGI is 16.1 µM.

And the GI50 [30]?
The GI50 was 1550 nM.

What about the TGI [30] of the same molecule?
The TGI was 4.08 µM.

And the GI50 [31]?
The GI50 was 4.61 µM.

And the TGI [31]?
The TGI was 18.2 µM.

What about the GI50 [32] of the same molecule?
Its GI50 is 4.23 µM.

And the TGI [32]?
Its TGI is 16.4 µM.

And the GI50 [33]?
The GI50 was 11.9 µM.

And the TGI [33]?
The TGI was 32 µM.

And the GI50 [34]?
The GI50 was 601 nM.

And the TGI [34]?
The TGI was 4.13 µM.

What about the GI50 [35] of the same molecule?
Its GI50 is 1280 nM.

What about the TGI [35] of the same molecule?
Its TGI is 2630 nM.

And the GI50 [36]?
The GI50 was 232 nM.

What about the TGI [36] of the same molecule?
The TGI was 1100 nM.

What about the GI50 [37] of the same molecule?
The GI50 was 3.22 µM.

And the TGI [37]?
The TGI was 13.9 µM.

And the GI50 [38]?
The GI50 was 531 nM.

What about the TGI [38] of the same molecule?
Its TGI is 10.8 µM.

And the GI50 [39]?
Its GI50 is 257 nM.

And the TGI [39]?
Its TGI is 5.44 µM.

What about the GI50 [40] of the same molecule?
The GI50 was 383 nM.

And the TGI [40]?
Its TGI is 9.38 µM.

What about the GI50 [41] of the same molecule?
The GI50 was 3.01 µM.

And the TGI [41]?
The TGI was 14.1 µM.

What about the GI50 [42] of the same molecule?
The GI50 was 5.29 µM.

And the TGI [42]?
Its TGI is 21.9 µM.

What about the GI50 [43] of the same molecule?
The GI50 was 4.1 µM.

What about the TGI [43] of the same molecule?
The TGI was 15.7 µM.

And the GI50 [44]?
The GI50 was 9.19 µM.

And the TGI [44]?
The TGI was 24.5 µM.

What about the GI50 [45] of the same molecule?
The GI50 was 1430 nM.

And the TGI [45]?
Its TGI is 3.64 µM.

What about the GI50 [46] of the same molecule?
The GI50 was 7.72 µM.

And the TGI [46]?
Its TGI is 28.7 µM.

What about the GI50 [47] of the same molecule?
The GI50 was 333 nM.

And the TGI [47]?
The TGI was 1440 nM.

What about the GI50 [48] of the same molecule?
Its GI50 is 24.4 µM.

What about the TGI [48] of the same molecule?
The TGI was > 100 µM.

What about the GI50 [49] of the same molecule?
The GI50 was 1210 nM.

And the TGI [49]?
Its TGI is 2870 nM.

And the GI50 [50]?
The GI50 was 2960 nM.

What about the TGI [50] of the same molecule?
The TGI was 13.5 µM.

What about the GI50 [51] of the same molecule?
The GI50 was 1590 nM.

And the TGI [51]?
Its TGI is 8.31 µM.

And the GI50 [52]?
Its GI50 is 17.2 µM.

What about the TGI [52] of the same molecule?
The TGI was 33.3 µM.

And the GI50 [53]?
The GI50 was 2950 nM.

And the TGI [53]?
Its TGI is 6.97 µM.

What about the GI50 [54] of the same molecule?
Its GI50 is 1590 nM.

And the TGI [54]?
Its TGI is 5.47 µM.

What about the GI50 [55] of the same molecule?
Its GI50 is 2090 nM.

And the TGI [55]?
Its TGI is 6.22 µM.

And the GI50 [56]?
The GI50 was 2250 nM.

And the TGI [56]?
Its TGI is 14.8 µM.
